# Measured values: PMC9804055, “Kinase inhibit region of SOCS3 attenuates IL6‐induced proliferation and astrocytic differentiation of neural stem cells via cross talk between signaling pathways” (CNS Neuroscience & Therapeutics, 2022)
# How the values were obtained:
# Type in all cases: cell-based, SD rats
# p‐JNK2 = assay: Western blotting, p-JNK2/JNK2; settings: mean ± SD, n = 3
# Method: (§1) NSCs at 1 × 10^6 cells/ml in 6‐well plate were treated with IL‐6 and TAT‐KIR as above. Cells were harvested at 3 h, 6 h, 12 h, 24 h, or 7 days after treatment. Cells were suspended in lysis buffer containing 150 μl RIPA (#89900, Pierce) protease and phosphatase inhibitor cocktail (#4693159001 and 04906845001, Roche). Cell lysates were incubated on ice for 20 min and centrifuged at 12,000 rpm for 15 min at 4°C. The proteins in supernatant were separated by electrophoresis with 10%–12% sodium dodecyl sulfate polyacrylamide gel (SDS‐PAGE) and then transferred onto 0.22 μm polyvinylidene difluoride membranes (PVDF; #IPVH00010, Millipore). The membranes were blocked in 5% BSA dissolved in Tris‐buffered saline containing 0.1% Tween‐20 for 2 h at room temperature and then were incubated overnight at 4°C with primary antibodies, including GFAP (#ab7260, Abcam, 1:1000), β Tublin III (#MAB1637, Millipore, 1:1000), and STAT3, p‐STAT3, P38, p‐P38, ERK1/2, p‐ERK1/2, AKT, p‐AKT, JNK2, p‐JNK2(#4904, 9145, 8690, 4511, 4695, 9101, 4685, 4060, 9258, 4668, Cell Signaling, all in 1:1000) and β‐actin (#A01263, Boster Biological Technology, 1:20,000). After washing, the membranes were incubated with the secondary antibodies (HRP conjugated anti‐rabbit or anti‐mouse IgG) for 2 h at room temperature. The membranes were visualized by an enhanced chemiluminescence (ECL) kit. All data were analyzed with Image J (version 1.61).
# NSCs [1] = assay: NSCs differentiation, immunostaining of GFAP and β tubulin III positive cells; settings: 7 DIV, mean ± SD, n = 9
# Method: NSCs at 1 × 10^5 cells/ml were seeded into 24‐well plates allocated randomly in Control, TAT‐KIR, IL‐6, and TAT‐KIR+IL6 groups. After 24 h culture with differentiation media, IL‐6 and TAT‐KIR were added into the medium as above order and reapplied every other day (Figure 4A). Cells were harvested at 7 DIV. Immunocytochemical staining was performed with different antibodies, including GFAP and β Tublin III. […] Then the numbers of GFAP positive and β Tubulin III positive cells were counted, and the percentages of differentiated cells were calculated by using Image J (version 1.61).
# p‐AKT = assay: Western blotting, p-AKT/AKT; settings: for rate of p-AKT to AKT: mean ± SD, n = 3
# Method: as §1
# p‐ERK1/2 = assay: Western blotting, p-ERK1/2 / ERK1/2; settings: mean ± SD, n = 3
# Method: as §1, with “The membranes were visualized by an enhanced chemiluminescence (ECL) kit.” left out
# p‐STAT3 = assay: Western blotting, p-STAT3/STAT3; settings: for rate of p-STAT3 to STAT3: differentiation medium, 7 days, mean ± SD, n = 3
# Method: as §1
# GFAP = assay: Western blotting, GFAP expression; settings: mean ± SD, n = 3
# Method: as §1, with “The membranes were visualized by an enhanced chemiluminescence (ECL) kit.” left out
# β tubulin III = assay: Western blotting, β tubulin III expression; settings: mean ± SD, n = 3
# Method: as §1, with “The membranes were visualized by an enhanced chemiluminescence (ECL) kit.” left out
# NSCs [2] = assay: Cell cycle analysis by FACS, proliferation index; settings: third day, mean ± SD, n = 3
# Method: (§2) NSCs survival and growth were analyzed by using cell counting kit‐8 (#CK04, Dojindo, CCK‐8). NSCs were randomly allocated in the Control, TAT‐scramble, TAT‐KIR, IL‐6, and TAT‐KIR+IL6 groups. All NSCs seeded into 96‐well plates at 5 × 10^4 cells/ml and cultured in growth medium for 24 h. IL‐6 in the concentration of 100 ng/ml was applied to mimic inflammatory condition. Thirty minutes later, TAT‐KIR or TAT‐scramble was added into the culture system. Cell viability of each group was observed by Universal Microplate Spectrophotometer (QuantTM, BioTek) at first, third, and fifth day after peptide administration (Figure 3A). Optical density (OD) values at 450 nm were measured. Immunocytochemistry staining with ki67 (#ab16667, Abcam, 1:300) was used to assess NSC proliferation. Cell cycles were analyzed by FACS at third day after peptide administration. The rates of cells in G0/G1, S, and G2/M were measured, and the proliferation index (PI) {PI = (S + G2/M)/([…] + S + G2/M) × 100%} was calculated, respectively. In each independent experiment, the procedures were carried out in triplicate.
# NSCs [3] = assay: Ki67 immunocytochemistry, NSC proliferation; settings: 3 days, mean ± SD
# Method: as §2
# [4] = substance alone, 3 h after treatment
# [5] = substance alone, 7 days differentiation
# [6] = substance alone, differentiation medium
# [7] = substance alone, PI = (S + G2/M)/(all phases) × 100%
# [8] = substance alone, growth medium, IL-6 100 ng/ml, TAT-KIR 3 μM, n = 9 figures from three experiments
# [9] = TAT-KIR together with IL-6, 7 days differentiation
# [10] = TAT-KIR together with IL-6 100 ng/ml
# [11] = TAT-KIR together with IL-6, treatment for 3 h
substance,measurement,setting,value
"IL‐6: inflammatory cytokine, 100 ng/ml applied to mimic inflammatory condition [reference compound]",p-JNK/JNK,p‐JNK2; [4],0.54 ± 0.056
same,p-JNK/JNK,"p‐JNK2; substance alone, 6 h after treatment",0.67 ± 0.062
same,rate of p-JNK2 to JNK2,p‐JNK2; [5],0.63 ± 0.049
same,percentage of GFAP positive cells (astrocytic differentiation),NSCs [1]; [6],45.72 ± 7.50%
same,percentage of β tubulin III positive cells (neuronal differentiation),NSCs [1]; [6],32.33 ± 5.68%
same,rate of p-AKT to AKT,p‐AKT; [5],1.05 ± 0.081
same,rate of p-ERK1/2 to ERK1/2,p‐ERK1/2; [5],0.75 ± 0.070
same,rate of p-STAT3 to STAT3,p‐STAT3; substance alone,0.88 ± 0.093
same,GFAP expression (Western blotting),GFAP; [5],1.30 ± 0.127
same,β tubulin III expression (Western blotting),β tubulin III; [5],1.22 ± 0.044
same,proliferation index (PI),NSCs [2]; [7],34.61 ± 4.12%
same,percentage of cells in G0/G1 phase,NSCs [2]; substance alone,65.39 ± 4.12%
same,percentage of cells in S phase,NSCs [2]; substance alone,28.14 ± 2.79%
same,percentage of Ki67 positive proliferating cells (Ki67/DAPI),NSCs [3]; [8],54.33 ± 10.29%
RKKRRQRRR‐LR‐LKTFSSKSEYQL‐V [TAT‐KIR],rate of p-JNK2 to JNK2,p‐JNK2; [9],0.63 ± 0.042
same,p-JNK/JNK,p‐JNK2; [4],0.30 ± 0.040
same,p-JNK/JNK,"p‐JNK2; substance alone, 12 h after treatment",0.50 ± 0.090
same,rate of p-JNK2 to JNK2,p‐JNK2; [5],increased trend
same,percentage of GFAP positive cells (astrocytic differentiation),NSCs [1]; [10],36.78 ± 6.81%
same,percentage of β tubulin III positive cells (neuronal differentiation),NSCs [1]; [10],30.33 ± 4.39%
same,percentage of GFAP positive cells (astrocytic differentiation),NSCs [1]; [6],30.67 ± 4.66%
same,percentage of β tubulin III positive cells (neuronal differentiation),NSCs [1]; [6],26.78 ± 4.79%
same,rate of p-AKT to AKT,p‐AKT; [9],0.87 ± 0.037
same,p-AKT expression of IL-6-induced NSCs,p‐AKT; [11],dramatically reduced
same,rate of p-ERK1/2 to ERK1/2,p‐ERK1/2; [9],0.68 ± 0.041
same,rate of p-STAT3 to STAT3,p‐STAT3; [10],0.61 ± 0.025
same,p-STAT3 expression of IL-6-induced NSCs,p‐STAT3; [11],dramatically reduced
same,rate of p-STAT3 to STAT3,p‐STAT3; substance alone,did not affect
same,GFAP expression (Western blotting),GFAP; [9],0.88 ± 0.091
same,β tubulin III expression (Western blotting),β tubulin III; [9],1.21 ± 0.025
same,percentage of cells in G0/G1 phase,NSCs [2]; [10],73.18 ± 3.04%
same,percentage of cells in S phase,NSCs [2]; [10],19.31 ± 3.32%
same,proliferation index (PI),NSCs [2]; [10],26.82 ± 3.04%
same,proliferation index (PI),NSCs [2]; [7],14.34 ± 1.98%
same,percentage of cells in G0/G1 phase,NSCs [2]; substance alone,85.66 ± 1.98%
same,percentage of cells in S phase,NSCs [2]; substance alone,9.56 ± 0.22%
same,percentage of Ki67 positive proliferating cells (Ki67/DAPI),"NSCs [3]; TAT-KIR 3 μM applied together with IL-6 100 ng/ml, n = 9",41.33 ± 7.72%
same,percentage of Ki67 positive proliferating cells (Ki67/DAPI),NSCs [3]; [8],20.67 ± 3.74%
